pIC50: −log10 of the molar value. “Also recorded” adds a separate entry of the source. Where two headings read alike, the source gives them in different places.
Tests used:
histamine H1 receptors = molecular target: T1, histamine H1 receptors (Cavia porcellus, UniProt P31389); assay: biochemical; type: binding, guinea-pig; settings: for potency as ligand of H1 receptors versus compound of Example 2' of ES 9600323 / potency as ligand of H1 receptors versus promethazine: in words, from Table 2
T1 construct: incubation of guinea-pig cerebellum membranes; from tissue; host or cells: guinea-pig cerebellum membranes
T1 sequence (P31389 whole entry): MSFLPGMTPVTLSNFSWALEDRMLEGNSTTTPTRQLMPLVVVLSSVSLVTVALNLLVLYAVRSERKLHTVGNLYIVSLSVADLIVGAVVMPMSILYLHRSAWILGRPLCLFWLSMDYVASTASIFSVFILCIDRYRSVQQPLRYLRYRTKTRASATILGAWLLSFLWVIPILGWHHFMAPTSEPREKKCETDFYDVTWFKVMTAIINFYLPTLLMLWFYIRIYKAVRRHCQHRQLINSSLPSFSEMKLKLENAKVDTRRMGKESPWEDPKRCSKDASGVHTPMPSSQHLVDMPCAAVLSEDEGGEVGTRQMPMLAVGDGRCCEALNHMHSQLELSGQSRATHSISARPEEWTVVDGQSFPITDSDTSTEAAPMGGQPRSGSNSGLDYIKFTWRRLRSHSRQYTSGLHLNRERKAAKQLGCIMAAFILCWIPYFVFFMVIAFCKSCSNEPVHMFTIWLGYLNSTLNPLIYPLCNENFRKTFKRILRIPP
Experimental: The bound radioactivity was separated by filtration (Whatman GF/B) in a Brandel Harvester. The amount of receptor-bound radioactivity present in the filters was determined using a Packard 1800TR counter. The specific binding was established with a 1 μM concentration of triprolidine.

[1] = catalepsy test (cataleptic activity, oral route); settings: rat
Experimental: (§1) For assessment, each animal was placed on the bottom of a small upright box ([…]). The walls of the box were made of translucent methacrylate except one of the lateral surfaces (7.5 cm wide) which was a 3-mm wire mesh. The position of the animal was scored for 2 minutes according to the following criteria: 0=four paws on the floor; 1=three paws on the floor; 2=two paws on the floor; 3=one paw on the floor; and 4=four paws holding the wire mesh. If an animal keeps several positions within the 2-min observation, the seconds elapsed in each position will be recorded. Finally, mean scoring was calculated.

5-HT2A receptors = molecular target: T2, 5-HT2A receptors (Rattus norvegicus, UniProt P14842); assay: specific binding to 5-HT2A receptors ([3H]ketanserin, rat cortex membrane); settings: for pIC50: [3H]ketanserin 0.5 nM, rat cortex, 30 min, 35° C., pH 7.4; for potency as ligand of 5-HT2A receptors versus compound of Example 2' of ES 9600323: in words, from Table 1
T2 construct: membrane corresponding to 1 mg of rat cortex; from tissue; host or cells: rat cortex membrane
T2 sequence (P14842 whole entry): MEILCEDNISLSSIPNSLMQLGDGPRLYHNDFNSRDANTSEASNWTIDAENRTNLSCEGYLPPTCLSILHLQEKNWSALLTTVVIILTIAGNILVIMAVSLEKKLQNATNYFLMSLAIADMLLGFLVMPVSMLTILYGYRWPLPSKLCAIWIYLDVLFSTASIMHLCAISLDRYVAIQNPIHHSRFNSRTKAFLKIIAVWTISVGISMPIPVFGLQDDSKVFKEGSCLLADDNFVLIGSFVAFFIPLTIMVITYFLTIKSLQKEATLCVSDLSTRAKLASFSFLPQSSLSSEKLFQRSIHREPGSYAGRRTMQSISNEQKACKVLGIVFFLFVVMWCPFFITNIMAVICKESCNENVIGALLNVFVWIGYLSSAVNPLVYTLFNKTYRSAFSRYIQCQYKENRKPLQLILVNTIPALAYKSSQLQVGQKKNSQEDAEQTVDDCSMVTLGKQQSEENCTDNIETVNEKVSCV

[2] = test system: apomorphine-induced climbing behaviour; assay: inhibition test of apomorphine-induced climbing behaviour; type: in vivo, male Swiss mice; settings: Mus musculus, 1 h, read-out: Climbing ID50
Experimental: For the practical performance of this experiment, male Swiss mice weighing 22-24 g were used. One week prior to experiment, animals were kept in our facilities at a temperature of 20-22° C. and 12/12 h light-dark cycle, and had free access to food and water. Two hours prior to experiment, the animals were placed in individual cages without access to food.
Animals were administered orally with test drug or 0.25% agar at time 0. After 60 minutes, apomorphine was subcutaneously injected at a dose of 1 mg/kg, and after further 70 minutes the animal's behaviour was assessed. Two additional assessments were performed at 10-min intervals.
as §1

D2 receptors = D2 receptors (Rattus norvegicus, UniProt P61169); assay: specific binding to D2 receptors ([3H]spiperone, rat striatum membrane); settings: in words, from Table 1
Sequence of D2 receptors (P61169 whole entry): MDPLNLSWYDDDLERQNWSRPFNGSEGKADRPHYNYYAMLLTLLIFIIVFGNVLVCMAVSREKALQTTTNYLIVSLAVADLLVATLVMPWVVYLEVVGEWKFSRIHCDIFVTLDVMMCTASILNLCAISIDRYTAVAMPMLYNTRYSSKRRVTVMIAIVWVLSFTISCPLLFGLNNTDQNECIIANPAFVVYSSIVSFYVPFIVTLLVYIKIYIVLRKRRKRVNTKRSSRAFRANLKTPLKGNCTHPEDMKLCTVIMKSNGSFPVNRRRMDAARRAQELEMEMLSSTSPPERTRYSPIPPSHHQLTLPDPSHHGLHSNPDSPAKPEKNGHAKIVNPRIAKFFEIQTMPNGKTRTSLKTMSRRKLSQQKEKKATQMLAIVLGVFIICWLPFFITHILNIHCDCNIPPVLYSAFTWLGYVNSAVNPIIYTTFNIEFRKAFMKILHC

[3] = therapeutic index (catalepsy ED50 / climbing ID50); settings: for selectivity ratio: in vivo, po; for therapeutic index versus compound of Example 2' of ES 9600323 and haloperidol: in words, from Table 3
Experimental: as §1

[4] = oral, male Swiss mice, apomorphine 1 mg/kg s.c. after 60 minutes

Compound | TD50 ([1]; in vivo) [mg/kg] | pIC50 (5-HT2A receptors) | potency as ligand of D2 receptors versus compound of Example 2' of ES 9600323 (D2 receptors) | potency as ligand of 5-HT2A receptors versus compound of Example 2' of ES 9600323 (5-HT2A receptors) | pIC50 (histamine H1 receptors) | potency as ligand of H1 receptors versus compound of Example 2' of ES 9600323 (histamine H1 receptors) | selectivity ratio [3] | therapeutic index versus compound of Example 2' of ES 9600323 and haloperidol [3] | TD50 ([1]; po) [mg/kg] | ED50 [2, 4] [mg/kg] | other results
O=c1c(CO)coc2cc(OCCCN3CCC(c4noc5cc(F)ccc45)CC3)ccc12 [Ex. 2' (ES 9600323), reference compound] | 3.8 | 8.51 | – | – | – | – | – | – | – | – | pIC50 (histamine H1 receptors; [3H]-pyrilamine 1 nM, guinea-pig cerebellum, 25° C., 60 minutes, read-out: IC50, H1 receptors): 8.92; ED50 ([2]; po): 0.25 mg/kg
O=Cc1coc2cc(OCCCN3CCC(c4noc5cc(F)ccc45)CC3)ccc2c1=O [Example 1, 7-[3-[4-(6-fluorobenzo[d]isoxazole-3-yl)piperidine-1-yl]propoxy]-3-formyl-chromen-4-one] | – | 8.68 | more potent | more potent | – | – | – | – | – | – | –
Cl.O=C(O)c1coc2cc(OCCCN3CCC(c4noc5cc(F)ccc45)CC3)ccc2c1=O [Example 2, 7-[3-[4-(6-fluorobenzo[d]isoxazole-3-yl)piperidin-1-yl]propoxy]-4-oxochromene-3-carboxylic acid hydrochloride] | – | 9.23 | more potent | more potent | – | – | – | – | – | – | –
COCc1coc2cc(OCCCN3CCC(c4noc5cc(F)ccc45)CC3)ccc2c1=O.Cl [Example 3, 7-[3-[4-(6-fluorobenzo[d]isoxazole-3-yl)piperidin-1-yl]propoxy]-3-methoxymethyl-chromen-4-one hydrochloride] | – | – | – | – | 9.47 | more potent | 32.3 | higher therapeutic index | 6.79 | 0.21 | potency as ligand of H1 receptors versus promethazine (histamine H1 receptors; hydrochloride): of the same order as promethazine; also recorded: greater than that of standard promethazine
Cl.O=c1cc(CO)oc2cc(OCCCN3CCC(c4noc5cc(F)ccc45)CC3)ccc12 [Example 6, 7-[3-[4-(6-fluorobenzo[d]isoxazole-3-yl)piperidin-1-yl]propoxy]-2-(hydroxymethyl)-chromen-4-one hydrochloride] | – | – | – | – | 9.00 | more potent | > 17 | higher therapeutic index | > 100 | 5.87 | potency as ligand of H1 receptors versus promethazine (histamine H1 receptors): of the same order as promethazine
O=C(CCCN1CCC(O)(c2ccc(Cl)cc2)CC1)c1ccc(F)cc1 [Haloperidol, haloperidol, reference compound] | 2 | – | – | – | – | – | – | – | – | 0.32 | –
